# In US4657924A, “Nafazatrom as a lipoxygenase inhibitor” (priority 1983, dated 1987):
# Experiments:
# [1] = tested on: cyclooxygenase; test: Cyclooxygenase inhibition; format: biochemical; settings: on administration of nafazatrom
# [2] = tested on: synthesis of various prostaglandins in RSVM and BAM; test: Prostaglandin synthesis in microsomes of sheep seminal vesicles (RSVM) and cattle aortas (BAM); format: biochemical
# Method: The specific PGI2 -stimulating action of nafazatrom was shown in vitro in a mixture of microsomes from the seminal vesicles of sheep (RSVM) and the aortas of cattle (BAM) (compare F. Cottee et al., Protaglandins, 14, 413, 1977). ^3 H-arachidonic acid was incubated with a mixture of RSVM and BAM in the presence of 3.10^-5 g/ml of nafazatrom at 25° C. for 10 minutes. The reaction was stopped by acidification to pH 3.5. The fatty acid metabolites were extracted with ethyl acetate. The ethyl acetate was evaporated off under N2, the residue was taken up in CH3 OH/CHCl3 (1:1) and the mixture was discharged on thin layer chromatography plastic sheets. Separation was effected with a mobile phase mixture of ethyl acetate/glacial acetic acid/isooctane/H2 O (110:20:50:10; organic phase) (P. Needleman et al., The Journal of Clinical Investigation 1978, 61, 839-849). The distribution of the radioactivity was measured by means of a radio scanner.
# [3] = tested on: rabbit hearts; test: Rabbit hearts perfused by the method of Langendorff, perfusion pressure
# Method: The heart was removed from the rabbits (up to about 2 kg) under Nembutal anaesthesia and cannulas were attached at the aorta and at the a.pulmonalis. To measure the isovolumetric contractions, a silicon rubber balloon filled with liquid was inserted into the left ventricle via the left auricle. The balloon was connected to a liquid sensor (Statham P 23 Db) via a liquid bridge. The perfusion pressure was recorded with a pressure sensor, which was connected to the perfusion system via T-piece before the aorta cannula of the heart. The contraction force and perfusion pressure were recorded with a Gould 2600 S high-speed recorder. The hearts were stimulated electrically at a frequency of 180/minute and a stimulation duration of 5 mseconds.
# Perfusion of the hearts was effected with Krebs-Henseleit solution (KH solution), which was gassed with carbogen (95% of O2, 5% of CO2) or with a gas mixture of 2% of O2, 5.6% of CO2 and the remainder N2. The perfusion volume was 20 ml/minute and was adjusted by a roller pump (Desaga, 132100). The nafazatrom and the platelet suspensions (obtained from the same rabbit from which the heart is removed) were added with the aid of infusion pumps (roller pumps, Braun-Melsungen), the solution or suspension being infused at a flow rate of 0.2 or 0.1 ml/minute from an infusion syringe via a Taigon tube and a fine cannula into the inlet tube shortly before the heart. The final concentration of the platelets was 1×10^7 /ml of KH solution. The solution flowing out of the heart (cannula in the a.pulmonalis) was collected periodically, under ice-cooling. To measure the concentrations of thromboxan as TXB2 and of prostacyclin as 6-keto-PGF1^α, determination of which was effected with the aid of radioimmunoassay, aliquot parts by volume were freeze-dried and taken up in one tenth of the original volume of water.
# [4] = tested on: leucocytes; test: Leucocyte stickiness in hamster cheek pouch venules; format: in vivo, Syrian golden hamster; settings: intraarterial, 1.0 mg/kg
# Method: The number of leucocytes counted will be greater, the lower the stickiness of the cells. Male Syrian golden hamsters (80-100 g) were anaesthetized with Nembutal (i.p.; 60 mg/kg). After insertion of a PE 10 catheter into the a.femoralis, the animal was laid on a Duling dissecting platform (MVR 5, 423 (1973)) and the right check pouch was withdrawn by inserting a Q-Tip. It was carefully drawn into the envisaged part of the platform, stretched and fixed. From the start of the dissection, 5 ml/minute of Superfusat flowed over the prepared cheek pouch. The temperature of the solution is 36° C. While treating the vessels with care, the upper layer tissue was separated longitudinally and folded back to the side. Under about 200-fold magnification, an area of about 1 cm^2 of connective tissue was carefully exposed. The animal was placed on the object stand of a microscope, together with the dissecting platform. A thermocouple was inserted into the left cheek pouch. The body temperature of the animal was thus monitored and kept at ±0.3° C. with the aid of an IR lamp (250 watt). The leucocyte stickiness was measured at about 500-fold magnification. A venule (30-40 μm .phi.) was selected in the exposed area. The number of leucocytes per unit time (minutes) which migrate past a certain section of this vessel was counted.
# [5] = tested on: ischaemia-induced ECG changes; test: Animal experiments: ECG changes in ischaemia; format: in vivo
# [6] = Antiasthmatic, inflammation-inhibiting and gastro-protective action; settings: in words
# [7] = tested on: prostacyclin (PGI2) from the vascular endothelium; settings: Vermylen et al., Chamone et al., McIntyre and Salzman; cited from earlier work
# [8] = tested on: hydroperoxidase portion of cyclooxygenase; settings: T. E. Eling et al., 1982; cited from earlier work
# [9] = 3.10^-5 g/ml, 25° C., 10 minutes
compound,measurement,setting,value
"CC1=NN(CCOc2ccc3ccccc3c2)C(=O)C1 [nafazatrom, 3-methyl-1-[2-(2-naphthyloxy)-ethyl]-2-pyrazolin-5-one]",inhibition of cyclooxygenase,[1],No such inhibition of cyclooxygenase
same,"Increase in concentration (in %) in comparison with the control, 6-Keto-PGF1 α",[2]; [9],300-400%
same,"Increase in concentration (in %) in comparison with the control, PGD2",[2]; [9],0%
same,"Increase in concentration (in %) in comparison with the control, PGE2",[2]; [9],0%
same,"Increase in concentration (in %) in comparison with the control, PGF2 α",[2]; [9],0%
same,synthesis of prostacyclin (PGI2),[2]; in words,specifically stimulates
same,synthesis of the prostaglandins having a vasoconstricting action and of TXA2,"[2]; in words, see Example 2",not influenced
same,"Perfusion pressure in % of the blank value, 3rd phase","[3]; as 2nd phase, 1.10^-5 g/ml of nafazatrom, 5 minutes",80%
same,"Perfusion pressure in % of the blank value, 5th phase","[3]; as 3rd phase (reoxygenation), 1.10^-5 g/ml",75%
same,"Perfusion pressure in % of the blank value, 4th phase","[3]; as 3rd phase, 2% of O2 (hypoxia), 10 minutes, 1.10^-5 g/ml",63%
same,rise in perfusion pressure caused by addition of platelets,[3]; first and second carbogen phase,significantly inhibits
same,"Perfusion pressure in % of the blank value, 2nd phase","[3]; normoxia, carbogen, 1.10^7 platelets/ml, 5 minutes, before addition of nafazatrom",139%
same,"Perfusion pressure in % of the blank value, 1st phase","[3]; preliminary phase, carbogen, before addition of nafazatrom",100%
same,duration of action,[4],about 60 minutes
same,increase in the number of leucocytes,[4],60-100%
same,R-wave in the ECG of the peripheral extremities,[5]; in vivo,increases less sharply and re-forms more rapidly
same,ST intervals compared with the controls,[5]; in vivo,changed less than in the controls
same,ischaemia-induced rise in the ST zone,[5]; indication of infarction,reduces the ischaemia-induced rise in the ST zone
same,"antiasthmatic, inflammation-inhibiting and gastro-protective action",[6],"marked antiasthmatic, inflammation-inhibiting and gastro-protective action"
same,stimulation of endogenous prostacyclin (PGI2),[7],stimulator of endogenous prostacyclin (PGI2)
same,action on hydroperoxidase portion of cyclooxygenase; conversion of arachidonic acid into PGH2,[8],acts as a reducing cofactor of the hydroperoxidase portion of cyclooxygenase and accelerates the conversion of arachidonic acid into PGH2
